Data: patent US11766434B2, “Pyrimidinone derivatives as CDC7 inhibitors” (Cancer Research Technology Limited, priority 2016, dated 2023)

Legend:
Cdc7/Dbf4 = Cdc7/Dbf4 (Homo sapiens, UniProt O00311); test: Cdc7 biochemical assay Method 2: Cdc7/Dbf4 Enzyme TR-FRET Assay measuring pS40MCM2; conditions: pS40 MCM2 peptide, 1 μM ATP, 25° C., 120 minutes, read-out: Biochemical Method 2 (pIC50) (converted)
Procedure: This protocol describes a method for assaying a compounds' ability to inhibit Cdc7 activity by measuring pS40MCM2 levels in a Cdc7/Dbf4 Enzyme TR-FRET Assay.
2.5 nM Cdc7/Dbf4 was incubated with 100 nM of biotin-labelled peptide 35-TDALTS(pS)PGRDLP in the presence of 1 μM ATP at 25° C. for 120 minutes. The phosphorylation of the peptide was detected using TR-FRET. Anti-Mcm2 (pS40) antibody, Terbium anti-rabbit secondary antibody and Streptavidin-Alexa Fluor488 form the detection system.

Cdc7 [1] = target: T1, Cdc7 (Homo sapiens, UniProt O00311); test: Cdc7 cell pharmacodynamics assay Method 2: pS40MCM2 levels in HCT116 cells; assay type: cell-based; parameters: endogenous in cells; conditions: 18 hours treatment, read-out: Biomarker Method 2 (pEC50) (converted)
T1 sequence (O00311 whole entry): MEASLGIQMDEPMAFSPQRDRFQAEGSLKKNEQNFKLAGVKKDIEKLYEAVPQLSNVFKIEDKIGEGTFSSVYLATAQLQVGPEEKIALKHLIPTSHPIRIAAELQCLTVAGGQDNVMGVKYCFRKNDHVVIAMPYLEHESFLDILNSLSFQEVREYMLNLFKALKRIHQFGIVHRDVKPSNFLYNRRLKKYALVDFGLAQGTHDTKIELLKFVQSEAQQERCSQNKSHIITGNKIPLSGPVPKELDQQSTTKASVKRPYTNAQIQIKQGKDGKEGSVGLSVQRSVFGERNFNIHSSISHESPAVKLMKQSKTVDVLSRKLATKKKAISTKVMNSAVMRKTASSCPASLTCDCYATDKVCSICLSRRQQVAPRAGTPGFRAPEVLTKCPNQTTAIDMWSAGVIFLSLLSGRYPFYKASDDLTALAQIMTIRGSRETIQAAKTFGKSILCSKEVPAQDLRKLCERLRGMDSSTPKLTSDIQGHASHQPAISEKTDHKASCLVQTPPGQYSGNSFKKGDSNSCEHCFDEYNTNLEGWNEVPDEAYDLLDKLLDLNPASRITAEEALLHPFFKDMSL
T1 sequence (Q9UBU7 whole entry partner): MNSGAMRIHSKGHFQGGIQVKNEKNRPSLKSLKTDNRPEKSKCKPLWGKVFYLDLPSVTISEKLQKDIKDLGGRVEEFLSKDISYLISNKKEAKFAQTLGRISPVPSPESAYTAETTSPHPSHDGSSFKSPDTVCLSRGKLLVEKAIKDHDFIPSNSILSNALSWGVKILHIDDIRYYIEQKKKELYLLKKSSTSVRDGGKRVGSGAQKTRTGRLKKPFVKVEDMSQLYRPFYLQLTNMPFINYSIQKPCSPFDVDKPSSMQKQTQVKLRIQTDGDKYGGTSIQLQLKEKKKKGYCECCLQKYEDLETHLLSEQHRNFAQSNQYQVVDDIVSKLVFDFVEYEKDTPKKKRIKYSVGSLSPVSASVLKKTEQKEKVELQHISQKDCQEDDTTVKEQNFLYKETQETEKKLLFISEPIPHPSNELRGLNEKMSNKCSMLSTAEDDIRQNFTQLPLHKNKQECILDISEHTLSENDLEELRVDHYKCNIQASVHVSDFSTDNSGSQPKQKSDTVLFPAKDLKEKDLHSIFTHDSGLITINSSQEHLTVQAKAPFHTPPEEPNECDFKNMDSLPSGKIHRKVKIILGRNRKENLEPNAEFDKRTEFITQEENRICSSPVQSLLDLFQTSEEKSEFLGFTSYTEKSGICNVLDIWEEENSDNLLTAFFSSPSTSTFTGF
Text: This protocol describes a method to investigate the inhibition of Cdc7 activity by measuring pS40MCM2 levels in cells, after treatment with compounds.
• HCT116 cells (ATCC, #CCL-247) • McCoys 5A with L-glutamine (Cellgro, #10-050-CV) • 10% FCS (Cellgro, #35-010-CV) • D-PBS without CaCl2 and MgCl2 (Cellgro, #21-031-CV) • Trypsin/EDTA (Cellgro, #25-052-CL) • BSA (Calbiochem, 126593) • Cell Extraction Buffer (Invitrogen FNN0011) • Protease inhibitor cocktail (Sigma P-2714) • PMSF 0.3M stock in DMSO (Sigma P7626) • Antibody—rabbit pMCM2 Ser40 (Abeam, AB133243) • Antibody—goat MCM2 (Bethyl #A300-122A) • Antibody—goat Anti Rabbit IgG HRP (Thermo, 31462) • SuperSignal ELISA Pico Chemiluminescent Substrate (Perbio Science UK Ltd 37069) • 10×PBS (Growcells, MRGF-6236) • Triton X100 (Sigma, P-T8787) • DMSO (Fisher, D128-1) • 2-Propanol (J. T. Baker, 9095-03) Method • Seed 1×10^6 HCT116 cells into each of two 175 cm^2 flask containing 30 mL Cell Growth Media and incubate at 37° C., 5% CO2 for 3 days. • Harvest the cells from one T175 cm^2 flask and count. • Dilute with Cell Growth Media to a cell density of 2×10^5. Dispense 100 μL to each well (20,000 HCT116 cells/well) of TC treated 96-well plate(s). • Allow cells to settle overnight in incubator set at 37° C. and 5% CO2. • Cell treatment: Transfer 0.25 μL/well from the compound plate to the wells of the cell plate(s). This is a 1:400 dilution of compound in the assay. • Once all cells are treated place the cells back to the incubator and incubate for 18 hours. • Dilute the capture antibody (total MCM2 #A300-122A) 1 in 250 in the required volume of PBS (5 mL per assay plate, plus 5 mL for dead volume) and add 50 μL to each well of a Hybond plate except wells A12 & B12. Seal the plate and incubate at room temperature fora minimum of 2 hours. • Defrost aliquot of Invitrogen Cell Extraction Buffer (FNN0011) on ice and supplement with appropriate volume of both Sigma protease inhibitor cocktail (P-2714) and PMSF (final cone 1 mM from a 1 M stock in DMSO). • After the 6 hour or 18 hour cell treatment time, tap out the media from the assay plates and place them in the −70° C. freezer for at least 5 minutes. • Flick out the remaining liquid in the previously prepared capture Ab plate(s) and add 200 μL 2% BSA per well. Incubate for 1 hour at room temperature. • Remove plates from freezer and add 20 μL of ice cold complete lysis buffer. Incubate cells for 30 minutes at 4° C. • Add 30 μL per well 2% BSA • At the end of the 1 hour incubation, wash the Capture/ELISA plate(s) with Wash Buffer on the BioTek plate washer. • Transfer 40 μL per well of the lysis plate(s) to the same wells in the Capture/ELISA plate. Incubate cells overnight at 4° C. • At the end of the overnight incubation, wash the ELISA plate(s) with Wash Buffer on BioTek plate washer. • Prepare Detection Antibody Buffer and dispense 50 μL to all wells of ELISA plate(s) except wells G1 & H1. Cover plate and incubate at room temperature for 2 hours with gentle shaking. • At the end of the 2 hour incubation, wash the ELISA plate(s) with Wash Buffer on the BioTek plate washer. • Prepare the Conjugated Antibody Buffer and dispense 50 μL to all wells of ELISA plate(s). • Cover the plate and incubate at room temperature for 1 hour with gentle shaking. • At the end of the 1 hour incubation, wash the ELISA plate(s) with Wash Buffer on the BioTek plate washer. • Prepare Substrate Buffer and dispense 50 μL to all wells of ELISA plate(s). • Incubate for a minimum of 10 minutes and read plates on the EnVision 2100 Multilabel Reader (Mirror: Luminescence (404) & Luminescence 700 (212); Measurement Height: 6.5 mm; Measurement Time: 0.2 s). Method 3

Cdc7 [2] = target: T1, Cdc7; test: Cdc7 cell pharmacodynamics assay Method 3: pS53MCM2 levels in SW48 cells; assay type: cell-based; parameters: endogenous in cells; host or cells: SW48; conditions: 6 hours treatment, read-out: Biomarker Method 3 (pEC50) (converted)
Text: This protocol describes a method to investigate the inhibition of Cdc7 activity by measuring pS53MCM2 levels in cells, after treatment with compounds.
• SW48 cells • RPMI 1640 (Sigma, R5886) • 10% FCS (Sera Laboratories International Ltd, EU000F Batch: 108005) • 100× L-Glutamine (Invitrogen, 25030-024) • D-Glucose Solution (10%) (Sigma, G8644) • HEPES Buffer Solution (Sigma, 83264) • Sodium Pyruvate (Sigma, S8636) • PBS (Fisger, BP399-4) • Trypsin/EDTA (Invitrogen 25300-054) • 2% BSA in PBS • Cell Extraction Buffer (Invitrogen FNN0011) • Protease inhibitor cocktail (Sigma P-2714) • PMSF 0.3M stock in DMSO (Sigma P7626) • Antibody—rabbit pMCM2 Ser53 (Bethyl #A300-756A) • Antibody—goat MCM2 (Bethyl #A300-122A) • Antibody—goat Anti Rabbit IgG HRP (Perbio Science UK Ltd 31462) • SuperSignal ELISA Pico Chemiluminescent Substrate (Perbio Science UK Ltd 37070) Method • Plate 30,000 SW48 cells per well in standard TC treated 96 well plate in 100 μL complete RPMI 1640 medium. • Allow cells to settle overnight in incubator set at 37° C. and 5% CO2. • Cell treatment: prepare a 384 well plate containing 80 μl PBS/well. The PBS should be at room temperature—to be referred to as intermediate plate. Transfer 2 μL of compound from mother plate to intermediate (daughter plate) 1:40 dilution, then 5 μL intermediate to cell (daughter) plate. • Once all cells are treated place the cells back to the incubator and incubate for 6 hours. • Dilute the capture antibody (total MCM2 #A300-122A) 1 in 250 in the required volume of PBS (5 mL per assay plate, plus 5 mL for dead volume) and add 50 μL to each well of a Hybond plate. Seal the plate and incubate at room temperature for a minimum of 2 hours. • Defrost aliquot of Invitrogen Cell Extraction Buffer (FNN0011) on ice and supplement with appropriate volume of both Sigma protease inhibitor cocktail (P-2714) and PMSF (final cone 1 mM from a 1 M stock in DMSO). • After the 6 hour cell treatment time, tap out the media from the assay plates and place them in the −80° C. freezer for at least 5 minutes. • Remove plates from freezer and add 20 μL of ice cold complete lysis buffer, with the multidrop. Incubate cells for 30 minutes at 4° C. • Add 80 μL per well 2% BSA. • Flick out the remaining liquid from the capture plate and transfer 80 μL from the lysis plate to the same wells in the capture/ELISA plate, using the Biomek. Cover with plate seal and incubate plates overnight at 4° C. • Wash plates with PBS, remove any residual remaining liquid and add 50 μL per well of pMCM2 Ser53 antibody (#A300-756A) diluted 1 in 100 in 2% BSA. Cover plate and incubate at room temperature for 2 hours with gentle shaking. • Wash plates with PBS, remove any residual remaining liquid and Incubate with 50 μL goat anti rabbit antibody (1 in 800 dilution in 2% BSA), for 1 hour at room temperature. • Wash plates with PBS, remove any residual remaining liquid and add 50 μL mixed SuperSignal Pico substrate. • Incubate each plate for 5 minutes at room temperature shielding the plates from direct light (with a cover plate). Read plates with the luminescent detection. Results

Cdc7/Dbf4, sequence (O00311 whole entry): as the sequence (O00311 whole entry) above
Cdc7/Dbf4, sequence (Q9UBU7 whole entry partner): as the sequence (Q9UBU7 whole entry partner) above

IC50 (Cdc7/Dbf4) | EC50 (Cdc7 [1]) | EC50 (Cdc7 [2]) | Structure (SMILES)
1.29 nM | 33.1 nM | 955 nM | C[C@@H]1COCCN1c1nc(-c2c[nH]c3ncccc23)[nH]c(=O)c1Cl [Compound 53, 5-chloro-4-[(3R)-3-methylmorpholin-4-yl]-2-(1H-pyrrolo[2,3-b]pyridin-3-yl)-1H-pyrimidin-6-one]
0.776 nM | 38 nM | 1170 nM | O=c1[nH]c(-c2cn[nH]c2C(F)(F)F)nc(N2CCOCC2)c1Cl [Compound 47, 5-chloro-4-morpholino-2-[5-(trifluoromethyl)-1H-pyrazol-4-yl]-1H-pyrimidin-6-one]
7.08 nM | 851 nM | 5750 nM | O=c1[nH]c(-c2c[nH]c3ncccc23)nc(N2CCNCC(F)(F)C2)c1Cl [Compound 52, 5-chloro-4-(6,6-difluoro-1,4-diazepan-1-yl)-2-(1H-pyrrolo[2,3-b]pyridin-3-yl)-1H-pyrimidin-6-one]
1.95 nM | 44.7 nM | 1170 nM | O=c1[nH]c(-c2cn[nH]c2C(F)(F)F)nc(N2CCNCC(F)(F)C2)c1Cl [Compound 45, 5-chloro-4-(6,6-difluoro-1,4-diazepan-1-yl)-2-[5-(trifluoromethyl)-1H-pyrazol-4-yl]-1H-pyrimidin-6-one]
2.24 nM | 457 nM |  | Cc1[nH]ncc1-c1nc(N2CCNC[C@H]2C)c(Cl)c(=O)[nH]1 [Compound 48, 5-chloro-4-[(2R)-2-methylpiperazin-1-yl]-2-(5-methyl-1H-pyrazol-4-yl)-1H-pyrimidin-6-one]
1.66 nM | 151 nM |  | CC1(C)CNCCN1c1nc(-c2cn[nH]c2C(F)(F)F)[nH]c(=O)c1Cl [Compound 46, 5-chloro-4-(2,2-dimethylpiperazin-1-yl)-2-[5-(trifluoromethyl)-1H-pyrazol-4-yl]-1H-pyrimidin-6-one]
